According to patent publication US20240109864A1, “SUBSTITUTED PYRAZOLYL PIPERIDINE CARBOXYLIC ACIDS” (BAYER AKTIENGESELLSCHAFT, priority 2020, published 2024):
Where a name gives a salt, the structure may show the parent alone.

Target: T1, recombinant guanylate cyclase reporter cell line (Rattus norvegicus, UniProt P20595)
T1 construct: expressed in transfected cells
T1 sequence (P20595 1-619): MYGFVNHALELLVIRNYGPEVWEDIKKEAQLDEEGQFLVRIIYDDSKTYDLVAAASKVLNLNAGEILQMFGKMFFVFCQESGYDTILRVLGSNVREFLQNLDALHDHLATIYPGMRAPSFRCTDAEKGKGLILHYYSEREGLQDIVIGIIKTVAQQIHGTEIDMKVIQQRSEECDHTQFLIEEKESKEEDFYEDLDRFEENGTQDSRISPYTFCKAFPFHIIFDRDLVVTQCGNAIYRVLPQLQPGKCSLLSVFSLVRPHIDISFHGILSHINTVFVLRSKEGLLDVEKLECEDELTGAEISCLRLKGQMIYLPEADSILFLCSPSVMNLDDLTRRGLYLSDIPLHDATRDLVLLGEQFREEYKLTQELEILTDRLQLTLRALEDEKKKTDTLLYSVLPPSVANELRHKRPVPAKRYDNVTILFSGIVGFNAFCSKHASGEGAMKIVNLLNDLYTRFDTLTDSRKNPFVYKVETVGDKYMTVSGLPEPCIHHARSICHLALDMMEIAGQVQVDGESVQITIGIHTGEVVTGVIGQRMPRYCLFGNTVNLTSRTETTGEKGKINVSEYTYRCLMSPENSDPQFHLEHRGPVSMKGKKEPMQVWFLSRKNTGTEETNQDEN
T1 sequence (P19686 1-690 partner): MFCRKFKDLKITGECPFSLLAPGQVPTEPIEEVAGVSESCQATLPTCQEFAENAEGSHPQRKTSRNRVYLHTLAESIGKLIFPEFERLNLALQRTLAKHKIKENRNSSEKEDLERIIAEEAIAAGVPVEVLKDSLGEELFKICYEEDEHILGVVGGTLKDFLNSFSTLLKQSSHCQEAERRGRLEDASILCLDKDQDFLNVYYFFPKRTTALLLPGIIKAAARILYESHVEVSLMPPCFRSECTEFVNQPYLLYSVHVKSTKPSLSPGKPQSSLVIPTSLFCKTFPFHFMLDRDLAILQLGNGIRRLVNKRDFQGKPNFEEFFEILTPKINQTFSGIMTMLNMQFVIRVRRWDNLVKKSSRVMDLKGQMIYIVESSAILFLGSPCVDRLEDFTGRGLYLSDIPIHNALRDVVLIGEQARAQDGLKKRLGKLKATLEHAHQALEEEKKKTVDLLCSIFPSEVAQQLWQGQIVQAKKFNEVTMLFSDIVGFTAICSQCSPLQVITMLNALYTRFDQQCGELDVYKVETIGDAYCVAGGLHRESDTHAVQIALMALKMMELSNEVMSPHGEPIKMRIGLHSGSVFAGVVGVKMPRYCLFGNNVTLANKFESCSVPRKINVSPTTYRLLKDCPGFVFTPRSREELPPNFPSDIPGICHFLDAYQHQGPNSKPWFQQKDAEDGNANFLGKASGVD
Test: Effect on a recombinant guanylate cyclase reporter cell line
Assay type: cell-based
Conditions: in some cases mean values from individual determinations; for MEC: MEC = minimum effective concentration; for EC50: half maximal effective concentration
Description: The cellular activity of the compounds according to the invention was determined using a recombinant guanylate cyclase reporter cell line, as described in F. Wunder et al., Anal. Biochem. 339, 104-112 (2005).

Structure (SMILES) | MEC | EC50
CC(=O)N1CCN(c2ccc(-c3ccc(Cl)cc3N3CCCC(n4ncc(C(=O)O)c4C(F)(F)F)C3)cc2)CC1 (single isomer, unassigned) [Example 36, 1-[1-[2-[4-(4-Acetylpiperazin-1-yl)phenyl]-5-chloro-phenyl]-3-piperidyl]-5-(trifluoromethyl)pyrazole-4-carboxylic acid] | 10.0 nM | 0.0355 µM
CCC(=O)N1CCN(c2ccc(-c3ccc(Cl)cc3N3CCCC(n4ncc(C(=O)O)c4C(F)(F)F)C3)cc2)CC1 (single isomer, unassigned) [Example 37, 1-[1-[5-Chloro-2-[4-(4-propanoylpiperazin-1-yl)phenyl]phenyl]-3-piperidyl]-5-(trifluoromethyl)pyrazole-4-carboxylic acid] | 3.0 nM | 0.0155 µM
CC(C)C(=O)N1CCN(c2ccc(-c3ccc(Cl)cc3N3CCCC(n4ncc(C(=O)O)c4C(F)(F)F)C3)cc2)CC1 (single isomer, unassigned) [Example 38, 1-[1-[5-Chloro-2-[4-[4-(2-methylpropanoyl)piperazin-1-yl]phenyl]phenyl]-3-piperidyl]-5-(trifluoromethyl)pyrazole-4-carboxylic acid] | 3.0 nM | 0.0155 µM
CC(C)(F)C(=O)N1CCN(c2ccc(-c3ccc(Cl)cc3N3CCCC(n4ncc(C(=O)O)c4C(F)(F)F)C3)cc2)CC1 (single isomer, unassigned) [Example 39, 1-[1-[5-Chloro-2-[4-[4-(2-fluoro-2-methyl-propanoyl)piperazin-1-yl]phenyl]phenyl]-3-piperidyl]-5-(trifluoromethyl)pyrazole-4-carboxylic acid] | 10.0 nM | 0.059 µM
CCCC(=O)N1CCN(c2ccc(-c3ccc(Cl)cc3N3CCCC(n4ncc(C(=O)O)c4C(F)(F)F)C3)cc2)CC1 (single isomer, unassigned) [Example 40, 1-[1-[2-[4-(4-Butanoylpiperazin-1-yl)phenyl]-5-chloro-phenyl]-3-piperidyl]-5-(trifluoromethyl)pyrazole-4-carboxylic acid] | 3.0 nM | 0.019 µM
COCCC(=O)N1CCN(c2ccc(-c3ccc(Cl)cc3N3CCCC(n4ncc(C(=O)O)c4C(F)(F)F)C3)cc2)CC1 (single isomer, unassigned) [Example 41, 1-[1-[5-Chloro-2-[4-[4-(3-methoxypropanoyl)piperazin-1-yl]phenyl]phenyl]-3-piperidyl]-5-(trifluoromethyl)pyrazole-4-carboxylic acid] | 3.0 nM | 0.044 µM
O=C(O)c1cnn(C2CCCN(c3cc(Cl)ccc3-c3ccc(N4CCN(C(=O)C5CC5)CC4)cc3)C2)c1C(F)(F)F (single isomer, unassigned) [Example 42, 1-[1-[5-Chloro-2-[4-[4-(cyclopropanecarbonyl)piperazin-1-yl]phenyl]phenyl]-3-piperidyl]-5-(trifluoromethyl)pyrazole-4-carboxylic acid] | 1.0 nM | 0.0042 µM
O=C(O)c1cnn(C2CCCN(c3cc(Cl)ccc3-c3ccc(N4CCN(C(=O)C5(F)CC5)CC4)cc3)C2)c1C(F)(F)F (single isomer, unassigned) [Example 43, 1-[1-[5-Chloro-2-[4-[4-(1-fluorocyclopropanecarbonyl)piperazin-1-yl]phenyl]phenyl]-3-piperidyl]-5-(trifluoromethyl)pyrazole-4-carboxylic acid] | 1.0 nM | 0.0151 µM
O=C(O)c1cnn(C2CCCN(c3cc(Cl)ccc3-c3ccc(N4CCN(C(=O)C5CC5F)CC4)cc3)C2)c1C(F)(F)F (single isomer, unassigned) [Example 44, 1-[1-[5-Chloro-2-[4-[4-(2-fluorocyclopropanecarbonyl)piperazin-1-yl]phenyl]phenyl]-3-piperidyl]-5-(trifluoromethyl)pyrazole-4-carboxylic acid] | 10.0 nM | 0.0345 µM
O=C(O)c1cnn(C2CCCN(c3cc(Cl)ccc3-c3ccc(N4CCN(C(=O)[C@H]5C[C@H]5F)CC4)cc3)C2)c1C(F)(F)F (single isomer, unassigned) [Example 45, hydrochloride] | 3.0 nM | 0.014 µM
O=C(O)c1cnn(C2CCCN(c3cc(Cl)ccc3-c3ccc(N4CCN(C(=O)[C@@H]5C[C@@H]5F)CC4)cc3)C2)c1C(F)(F)F (single isomer, unassigned) [Example 46] | 3.0 nM | 0.0145 µM
O=C(O)c1cnn(C2CCCN(c3cc(Cl)ccc3-c3ccc(N4CCN(C(=O)C5CC5(F)F)CC4)cc3)C2)c1C(F)(F)F (single isomer, unassigned) [Example 47, 1-[1-[5-Chloro-2-[4-[4-[2,2-difluorocyclopropanecarbonyl]piperazin-1-yl]phenyl]phenyl]-3-piperidyl]-5-(trifluoromethyl)pyrazole-4-carboxylic acid] | 3.0 nM | 0.017 µM
O=C(O)c1cnn(C2CCCN(c3cc(Cl)ccc3-c3ccc(N4CCN(C(=O)[C@H]5CC5(F)F)CC4)cc3)C2)c1C(F)(F)F (single isomer, unassigned) [Example 48, 1-[1-[5-Chloro-2-[4-[4-[2,2-difluorocyclopropanecarbonyl]piperazin-1-yl]phenyl]phenyl]-3-piperidyl]-5-(trifluoromethyl)pyrazole-4-carboxylic acid] | 3.0 nM | 0.0106 µM
O=C(O)c1cnn(C2CCCN(c3cc(Cl)ccc3-c3ccc(N4CCN(C(=O)C5CCC5)CC4)cc3)C2)c1C(F)(F)F (single isomer, unassigned) [Example 49, 1-[1-[5-Chloro-2-[4-[4-(cyclobutanecarbonyl)piperazin-1-yl]phenyl]phenyl]-3-piperidyl]-5-(trifluoromethyl)pyrazole-4-carboxylic acid hydrochloride] | 1.0 nM | 0.0035 µM
O=C(O)c1cnn(C2CCCN(c3cc(Cl)ccc3-c3ccc(N4CCN(C(=O)C5CC(F)(F)C5)CC4)cc3)C2)c1C(F)(F)F (single isomer, unassigned) [Example 50, 1-[1-[5-Chloro-2-[4-[4-(3,3-difluorocyclobutanecarbonyl)piperazin-1-yl]phenyl]phenyl]-3-piperidyl]-5-(trifluoromethyl)pyrazole-4-carboxylic acid] | 10.0 nM | 0.0475 µM
O=C(O)c1cnn(C2CCCN(c3cc(Cl)ccc3-c3ccc(N4CCN(C(=O)C56CC(F)(C5)C6)CC4)cc3)C2)c1C(F)(F)F (single isomer, unassigned) [Example 51, 1-[1-[5-Chloro-2-[4-[4-(3-fluorobicyclo[1.1.1]pentane-1-carbonyl)piperazin-1-yl]phenyl]phenyl]-3-piperidyl]-5-(trifluoromethyl)pyrazole-4-carboxylic acid] | 3.0 nM | 0.0094 µM
CC(C)CC(=O)N1CCN(c2ccc(-c3ccc(Cl)cc3N3CCCC(n4ncc(C(=O)O)c4C(F)(F)F)C3)cc2)CC1 (single isomer, unassigned) [Example 52, 1-[1-[5-Chloro-2-[4-[4-(3-methylbutanoyl)piperazin-1-yl]phenyl]phenyl]-3-piperidyl]-5-(trifluoromethyl)pyrazole-4-carboxylic acid] | 10.0 nM | 0.031 µM
O=C(O)c1cnn(C2CCCN(c3cc(Cl)ccc3-c3ccc(N4CCN(C(=O)C5CC56CC6)CC4)cc3)C2)c1C(F)(F)F (single isomer, unassigned) [Example 53, 1-[1-{4-chloro-4′-[4-(spiro[2.2]pentane-1-carbonyl)piperazin-1-yl][1,1′-biphenyl]-2-yl}piperidin-3-yl]-5-(trifluoromethyl)-1H-pyrazole-4-carboxylic acid] | 10.0 nM | 0.022 µM
COC(=O)N1CCN(c2ccc(-c3ccc(Cl)cc3N3CCCC(n4ncc(C(=O)O)c4C(F)(F)F)C3)cc2)CC1 (single isomer, unassigned) [Example 54, 1-[1-[5-Chloro-2-[4-(4-methoxycarbonylpiperazin-1-yl)phenyl]phenyl]-3-piperidyl]-5-(trifluoromethyl)pyrazole-4-carboxylic acid] | 3.0 nM | 0.0111 µM
